In general, Ki refers to a dissociation constant, usually derived from enzyme kinetics or from competition with a known ligand. Broadly, the EC50 is the midpoint of the concentration-response curve. Low values mean greater potency, high ones weaker potency.

Where two headings read alike, the source gives them in different places.

Assay [1] concerns the target T1, μ opioid receptor (Homo sapiens, UniProt P35372).
T1 construct: expressed in transfected cells; host or cells: Chinese hamster ovary (CHO) cells, membranes
Nature of the assay: Receptor binding, [3H]DAMGO, membranes of transfected CHO cells. The protocol:
(§1) Opioid receptor activity studies were carried out by the method of the Opiate Treatment Discovery Program of the National Institutes of Health. Receptor binding studies were conducted on Chinese hamster ovary (CHO) cells which had been transfected with human DNA encoding for the μ, δ, and κ opiate receptors, respectively.
(§2) The cell line expressing the μ opioid receptor is maintained in Ham's F-12 medium supplemented with 10% fetal bovine serum and 400 μg/ml GENETICIN (G418 sulfate). The cell line expressing the δ opioid receptor is maintained in Ham's F-12 medium supplemented with 10% fetal bovine serum and 500 μg/ml hygromycin B. The cell line expressing the κ opioid receptor is maintained in Dulbecco's minimal essential medium (DMEM) supplemented with 10% fetal bovine serum, 400 μg/ml GENETICIN (G418 sulfate), and 0.1% penicillin/streptomycin. All cell lines are grown to full confluency, then harvested for membrane preparation. The membrane used for functional assays is prepared in buffer A (20 mM HEPES, 10 mM MgCl2, and 100 mM NaCl at pH 7.4) and the membrane for binding assays is prepared in 50 mM Tris buffer, pH 7.7. Cells are harvested by scraping the plates with a rubber policeman and then centrifuged at 500 times gravity for 10 minutes. The cell pellet is suspended in buffer A or Tris buffer, homogenized in a Polytron Homogenizer, and centrifuged at 20,000 times gravity for 20 minutes. The cell pellet is washed in buffer A or Tris, centrifuged at 20,000 times gravity for another 20 minutes, and, finally, suspended in a small amount of buffer to determine protein content. Membrane is aliquoted in small vials at a concentration of 6 mg/ml per vial, stored at -70° C., and used as needed.
Binding assays were conducted using [^3 H]DAMGO, [^3 H]Cl-DPDPE and [^3 H]U69,593 as labelling ligands specific for μ, δ and κ opioid receptors, respectively. DAMGO is Tyr-D-Ala-Gly-NMePhe-[…]. The structural formulae for U69,593 and Cl-DPDPE are [drawing 10] […]
(§3) Samples were filtered over glass fiber filters and counted as described for the binding assays.

The target in assay [2] is T2, δ opioid receptor (Homo sapiens, UniProt P41143).
T2 construct: expressed in transfected cells; host or cells: Chinese hamster ovary (CHO) cells, membranes
T2 sequence (P41143 whole entry): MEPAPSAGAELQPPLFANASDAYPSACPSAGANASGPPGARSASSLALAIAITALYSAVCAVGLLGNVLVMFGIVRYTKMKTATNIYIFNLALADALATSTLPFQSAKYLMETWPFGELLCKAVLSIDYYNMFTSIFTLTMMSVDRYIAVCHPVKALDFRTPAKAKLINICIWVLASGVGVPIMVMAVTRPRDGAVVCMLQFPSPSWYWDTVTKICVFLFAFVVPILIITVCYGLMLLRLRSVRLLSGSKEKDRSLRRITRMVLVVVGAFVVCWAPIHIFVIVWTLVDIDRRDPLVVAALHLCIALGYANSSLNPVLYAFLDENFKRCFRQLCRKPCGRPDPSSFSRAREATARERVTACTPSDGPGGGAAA
The experiment in a line: Receptor binding, [3H]Cl-DPDPE, membranes of transfected CHO cells. To be noted: CHO cell membranes, radioligand [3H]Cl-DPDPE, 1 hour at 25° C., SEM in brackets. The procedure:
as §1
as §2, with “The cell pellet is suspended in buffer A or Tris buffer, homogenized in a Polytron Homogenizer, and centrifuged at 20,000 times gravity for 20 minutes. The cell pellet is washed in buffer A or Tris, centrifuged at 20,000 times gravity for another 20 minutes, and, finally, suspended in a small amount of buffer to determine protein content. Membrane is aliquoted in small vials at a concentration of 6 mg/ml per vial, stored at -70° C., and used as needed.” left out
as §3

Assay [3] has as its target T3, κ opioid receptor (Homo sapiens, UniProt P41145).
T3 construct: expressed in transfected cells; host or cells: Chinese hamster ovary (CHO) cells, membranes
The experiment in a line: Receptor binding, [3H]U69,593, membranes of transfected CHO cells. The conditions noted are these: CHO cell membranes, radioligand [3H]U69,593, 1 hour at 25° C., SEM in brackets. The procedure:
as §1
The cell line expressing the μ opioid receptor is maintained in Ham's F-12 medium supplemented with 10% fetal bovine serum and 400 μg/ml GENETICIN (G418 sulfate). […]
Cell membranes were incubated with the appropriate radioligand and unlabeled compounds of Example 1 in a total volume of 200 μl in 96-well plates, usually for 1 hour at 25° C. […] Filters were dried overnight before radioactivity levels were determined. Nonspecific binding was determined by using 1.0 μM of the unlabeled counterpart of each radioligand.
(§4) Analysis of the data for IC50 values and Hill coefficients was performed using the program PRISM. Opioid receptor binding constants, Ki, were calculated using the Cheng-Prusoff transformation, Ki=IC50 /(1+L/Kd), where L is radioligand concentration and Kd is the binding affinity of the radioligand, as determined previously by saturation analysis. […] Samples were filtered over glass fiber filters and counted as described for the binding assays. […]

Assay [4] has as its target T1, μ opioid receptor. Nature of the assay: [35S]GTPγS agonist/antagonist assay, μ-CHO membrane. The format is biochemical. The protocol:
as §1
as §2, with “The cell pellet is suspended in buffer A or Tris buffer, homogenized in a Polytron Homogenizer, and centrifuged at 20,000 times gravity for 20 minutes. The cell pellet is washed in buffer A or Tris, centrifuged at 20,000 times gravity for another 20 minutes, and, finally, suspended in a small amount of buffer to determine protein content. Membrane is aliquoted in small vials at a concentration of 6 mg/ml per vial, stored at -70° C., and used as needed.” left out
as §4
(§5) Agonist activity at μ, δ and κ receptors is reported as % stimulation relative to the respective agonists DAMGO, Cl-DPDPE, and U69,593. […] A full Schild analysis was conducted, utilizing a full agonist dose response curve in the presence of at least three concentrations of the antagonist. pA2 values and Schild slopes were determined using a statistical program designed for these experiments.

For assay [5], the target named is T2, δ opioid receptor. The experiment in a line: [35S]GTPγS agonist/antagonist assay, δ-CHO membrane. The assay is classed as biochemical. The protocol: as §1, §2, §3
The target of assay [6] is T3, κ opioid receptor. Nature of the assay: [35S]GTPγS agonist/antagonist assay with Schild analysis, κ-CHO membrane. The format is biochemical. The protocol:
as §1, §2
Analysis of the data for IC50 values and Hill coefficients was performed using the program PRISM. Opioid receptor binding constants, Ki, were calculated using the Cheng-Prusoff transformation, Ki=IC50 /(1+L/Kd), where L is radioligand concentration and Kd is the binding affinity of the radioligand, as determined previously by saturation analysis. See Y. C. Cheng et al., Biochem. Pharmacol., 22, p. 3099-3102 (1973). […] Samples were filtered over glass fiber filters and counted as described for the binding assays. […]
as §5
Background: GTPγS is a poorly hydrolysed GTP analogue; its binding reports G protein activation.

Assay [7] concerns δ receptor of the T-cell. The experiment in a line: Stimulatory activity at the δ receptor of the T-cell of the immune system. The format is cell-based. To be noted: result in words.
Assay [8] is described as follows: In vivo analgesic testing on rats. The conditions noted are these: result in words.
The mark [9] stands for this setting: [35S]GTPγS, 60 min at 25° C., SEM in brackets.

T3 sequence (P41145 whole entry): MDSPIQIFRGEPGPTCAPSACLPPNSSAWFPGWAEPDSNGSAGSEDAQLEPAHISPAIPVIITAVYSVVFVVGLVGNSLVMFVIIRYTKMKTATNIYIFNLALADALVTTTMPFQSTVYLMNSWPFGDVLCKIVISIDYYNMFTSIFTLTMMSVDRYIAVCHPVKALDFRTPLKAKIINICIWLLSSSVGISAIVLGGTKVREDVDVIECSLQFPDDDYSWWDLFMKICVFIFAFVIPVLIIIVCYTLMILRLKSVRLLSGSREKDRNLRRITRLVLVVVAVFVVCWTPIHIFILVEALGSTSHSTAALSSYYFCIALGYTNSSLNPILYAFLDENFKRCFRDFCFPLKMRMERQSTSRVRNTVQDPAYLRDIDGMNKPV
T1 sequence (P35372 whole entry): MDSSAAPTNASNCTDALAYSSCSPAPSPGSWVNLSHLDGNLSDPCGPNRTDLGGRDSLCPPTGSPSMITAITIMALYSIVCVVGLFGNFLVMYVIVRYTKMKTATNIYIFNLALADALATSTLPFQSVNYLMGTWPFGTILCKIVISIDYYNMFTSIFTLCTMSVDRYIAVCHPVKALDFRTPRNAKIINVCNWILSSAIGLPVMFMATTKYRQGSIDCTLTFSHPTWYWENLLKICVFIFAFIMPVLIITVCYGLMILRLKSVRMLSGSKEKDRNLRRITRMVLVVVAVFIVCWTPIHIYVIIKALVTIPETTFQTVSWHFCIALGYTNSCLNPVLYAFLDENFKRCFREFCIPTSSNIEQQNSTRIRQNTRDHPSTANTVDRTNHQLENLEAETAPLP

For `CN1CC[C@]23c4c5ccc(O)c4O[C@H]2c2n[nH]cc2C[C@@]3(O)[C@H]1C5` [Example 1, 17-Methyl-6,7-dehydro-3,14-hydroxy-4,5α-epoxy-6,7:5',4'(6,7: 3',4')pyrazolomorphin (tautomers)], the Ki is 3.75 nM in assay [1] (CHO cell membranes, human μ receptor, radioligand [3H]DAMGO, 1 hour at 25° C., SEM in brackets); 19.1 nM in assay [2]; 12.3 nM in assay [3]. Also, in assay [1] (ratio of binding affinities, μ versus δ), the “Selectivity: affinity for μ over δ” value is listed as “about 7 times”. Besides, the “Selectivity: affinity for μ over κ” value in assay [1] (ratio of binding affinities, μ versus κ) is recorded as “about 7 times”. Besides, the Emax is 80.3% in assay [4] (1 h, [35S]GTPγS, relative to full agonist DAMGO, read-out: % Stimulation μ-CHO membrane) and 75.2% in assay [5] (1 h, [35S]GTPγS, relative to full agonist Cl-DPDPE, read-out: % Stimulation δ-CHO membrane). The EC50 in assay [4] (setting [9]) worked out at 19.3 nM; in assay [5] (setting [9]) it was 25 nM. Also, the “Agonist/antagonist property at the μ receptor” value in assay [4] (result in words) is “agonist”. Moreover, the “Agonist/antagonist property at the δ receptor” value in assay [5] (result in words) is “agonist”. For the same compound, the Kb is 59.3 nM in assay [6] ([35S]GTPγS, antagonism, agonist U69,593, SEM in brackets, read-out: Ke (SEM) κ-CHO membrane) and 51.3 nM in assay [6] (full Schild analysis, κ-CHO membrane, read-out: pA2 value (converted)). In addition, in assay [6] (full Schild analysis, κ-CHO membrane), the Schild slope is recorded as -0.92±0.32. Besides, in assay [6] (result in words), the “Agonist/antagonist property at the κ receptor” value is reported as “antagonist”. For the same compound, in assay [7], the “Stimulatory activity at the δ receptor of the T-cell” value is “weak stimulatory activity”. Also, the Analgesic activity result in assay [8] was “potent analgesic activity”. Further, the “Duration of analgesic activity” value in assay [8] is on record as “long duration of activity”.

(Values after patent publication US6284769A, “Nonpeptide kappa opioid receptor antagonists” (The Board of Trustees of the University of Illinois, priority 1999, dated 2001).)
